Results on 14 compounds are retold here after US20250049970A1, “DLL3 TARGETING PEPTIDES AND CONSTRUCTS THEREOF” (MARIANA ONCOLOGY INC., priority 2023, published 2025).

This assay deals with T1, DLL3 (Homo sapiens, UniProt Q9NYJ7).
T1 sequence (Q9NYJ7 27-618): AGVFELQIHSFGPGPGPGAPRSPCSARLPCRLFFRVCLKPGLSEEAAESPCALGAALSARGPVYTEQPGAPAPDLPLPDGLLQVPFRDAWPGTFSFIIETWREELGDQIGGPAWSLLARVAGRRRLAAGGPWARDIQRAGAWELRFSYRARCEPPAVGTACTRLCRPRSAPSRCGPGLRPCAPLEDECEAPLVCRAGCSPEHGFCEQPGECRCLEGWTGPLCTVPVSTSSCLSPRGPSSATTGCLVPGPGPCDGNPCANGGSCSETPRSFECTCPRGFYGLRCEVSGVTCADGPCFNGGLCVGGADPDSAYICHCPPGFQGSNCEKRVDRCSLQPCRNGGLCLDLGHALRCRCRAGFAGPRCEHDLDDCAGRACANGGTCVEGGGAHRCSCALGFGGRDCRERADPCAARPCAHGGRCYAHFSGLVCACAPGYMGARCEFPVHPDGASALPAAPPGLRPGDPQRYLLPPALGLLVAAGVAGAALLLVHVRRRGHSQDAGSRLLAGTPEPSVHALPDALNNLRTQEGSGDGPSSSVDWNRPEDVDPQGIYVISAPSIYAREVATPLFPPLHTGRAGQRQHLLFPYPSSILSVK
Kind of assay: SPR KD, biotinylated human DLL3 on streptavidin chip (Table 8). Set-up: biotin (biotinylated). The note with it: biotinylated human DLL3 on streptavidin sensor chip, 25° C., 1:1 binding model; read-out: SPR KD. From the text: Biotinylated target ligand human DLL3 was immobilized on a streptavidin sensor chip. A reference surface was set up for nonspecific binding and refractive index changes. […] Sensorgram curves were fitted with 1:1 binding model, and affinity and kinetic parameters were obtained using Biacore Insight evaluation 4.0. software.

What is called pKd is the negative decadic logarithm of the Kd, by convention in mol/L.

Molecules are shown by their SMILES. pKd: −log10 of the molar value. Where a SMILES comes first, the peptide text is derived from it. Bridges are numbered along the chain shown (N, C = ends). [ ]: non-standard residue; d: D form.

Consider `CC(=O)N[C@@H](Cc1c[nH]c2ccccc12)C(=O)N[C@H](C(=O)N[C@H](C(=O)N[C@H]1CSSC[C@@H](C(=O)N[C@@H](Cc2c[nH]c3ccccc23)C(=O)N2CCC[C@H]2C(N)=O)NC(=O)[C@H](CC(=O)O)NC(=O)[C@H](CCCCNC(=O)CN2CCN(CC(=O)O)CCN(CC(=O)O)CCN(CC(=O)O)CC2)NC(=O)[C@H](Cc2ccc3ccccc3c2)NC(=O)[C@H](CC(N)=O)NC(=O)[C@H](CN2CCOCC2)NC1=O)C(C)(C)C)[C@@H](C)O` (single isomer, unassigned) [compound 304, Ac-W-T-(Tbg)-C(3)-[3-(1-morpholinyl)-Ala]-N-(2Nal)-Lys(DOTA)-D-C(3)-W-P-CONH2], for which the pKd is 8.00 to 9.00.

`CC(=O)N[C@@H](Cc1c[nH]c2ccccc12)C(=O)N[C@H](C(=O)N[C@@H](CC(C)(C)C)C(=O)N[C@H]1CSSC[C@@H](C(=O)N[C@@H](Cc2c[nH]c3ccccc23)C(=O)N2CCC[C@H]2C(N)=O)NC(=O)[C@H](CC(=O)O)NC(=O)[C@H](CCCCNC(=O)CN2CCN(CC(=O)O)CCN(CC(=O)O)CCN(CC(=O)O)CC2)NC(=O)[C@H](Cc2ccc3ccccc3c2)NC(=O)[C@H](CC(N)=O)NC(=O)C(CN2CCOCC2)NC1=O)[C@@H](C)O` (single isomer, unassigned) [compound 305, Ac-W-T-(t-Bu-Ala)-C(3)-[3-(1-morpholinyl)-Ala]-N-(2Nal)-Lys(DOTA)-D-C(3)-W-P-CONH2]: the pKd was above 9.00.

For the compound `CCC(C)(C)[C@H](NC(=O)[C@@H](NC(=O)[C@H](Cc1c[nH]c2ccccc12)NC(C)=O)[C@@H](C)O)C(=O)N[C@H]1CSSC[C@@H](C(=O)N[C@@H](Cc2c[nH]c3ccccc23)C(=O)N2CCC[C@H]2C(N)=O)NC(=O)[C@H](CC(=O)O)NC(=O)[C@H](CCCCNC(=O)CN2CCN(CC(=O)O)CCN(CC(=O)O)CCN(CC(=O)O)CC2)NC(=O)[C@H](Cc2ccc3ccccc3c2)NC(=O)[C@H](CC(N)=O)NC(=O)C(CN2CCOCC2)NC1=O` (single isomer, unassigned) [compound 306, Ac-W-T-(α-tert-amylGly)-C(3)-[3-(1-morpholinyl)-Ala]-N-(2Nal)-Lys(DOTA)-D-C(3)-W-P-CONH2], the pKd is above 9.00.

For the compound `CC[C@@H](C)[C@H](NC(=O)[C@@H](NC(=O)[C@H](Cc1c[nH]c2ccccc12)NC(C)=O)[C@@H](C)O)C(=O)N[C@H]1CSSC[C@@H](C(=O)N[C@@H](Cc2c[nH]c3ccccc23)C(=O)N2CCC[C@H]2C(N)=O)NC(=O)[C@H](CC(=O)O)NC(=O)[C@H](CCCCNC(=O)CN2CCN(CC(=O)O)CCN(CC(=O)O)CCN(CC(=O)O)CC2)NC(=O)[C@H](Cc2ccc3ccccc3c2)NC(=O)[C@H](CC(N)=O)NC(=O)C(CN2CCOCC2)NC1=O` (single isomer, unassigned) [compound 307, Ac-W-T-(Allo-Ile)-C(3)-[3-(1-morpholinyl)-Ala]-N-(2Nal)-Lys(DOTA)-D-C(3)-W-P-CONH2], the pKd was 8.00 to 9.00.

As for `CC(=O)N[C@@H](Cc1c[nH]c2ccccc12)C(=O)N[C@H](C(=O)N[C@@H](CC(C)(C)C)C(=O)N[C@H]1CSSC[C@@H](C(=O)N[C@@H](Cc2c[nH]c3ccccc23)C(=O)N2CCC[C@H]2C(N)=O)NC(=O)[C@H](CC(=O)O)NC(=O)[C@H](CCCCNC(=O)CN2CCN(CC(=O)O)CCN(CC(=O)O)CCN(CC(=O)O)CC2)NC(=O)[C@H](Cc2ccc3ccccc3c2)NC(=O)[C@H](CC(N)=O)NC(=O)C(CN2CCOCC2)NC1=O)[C@@H](C)O` (single isomer, unassigned) [compound 310, Ac-W-T-(t-Bu-Ala)-C(3)-[3-(1-morpholinyl)-Ala]-N-(2Nal)-Lys(DOTA)-D-C(3)-W-P-CONH2], the pKd is above 9.00.

With `CCC(C)(C)[C@H](NC(=O)[C@@H](NC(=O)[C@H](Cc1c[nH]c2ccccc12)NC(C)=O)[C@@H](C)O)C(=O)N[C@H]1CSSC[C@@H](C(=O)N[C@@H](Cc2c[nH]c3ccccc23)C(=O)N2CCC[C@H]2C(N)=O)NC(=O)[C@H](CC(=O)O)NC(=O)[C@H](CCCCNC(=O)CN2CCN(CC(=O)O)CCN(CC(=O)O)CCN(CC(=O)O)CC2)NC(=O)[C@H](Cc2ccc3ccccc3c2)NC(=O)[C@H](CC(N)=O)NC(=O)C(CN2CCOCC2)NC1=O` (single isomer, unassigned) [compound 311, Ac-W-T-(α-tert-amylGly)-C(3)-[3-(1-morpholinyl)-Ala]-N-(2Nal)-Lys(DOTA)-D-C(3)-W-P-CONH2], the pKd is above 9.00.

Take `CC[C@@H](C)[C@H](NC(=O)[C@@H](NC(=O)[C@H](Cc1c[nH]c2ccccc12)NC(C)=O)[C@@H](C)O)C(=O)N[C@H]1CSSC[C@@H](C(=O)N[C@@H](Cc2c[nH]c3ccccc23)C(=O)N2CCC[C@H]2C(N)=O)NC(=O)[C@H](CC(=O)O)NC(=O)[C@H](CCCCNC(=O)CN2CCN(CC(=O)O)CCN(CC(=O)O)CCN(CC(=O)O)CC2)NC(=O)[C@H](Cc2ccc3ccccc3c2)NC(=O)[C@H](CC(N)=O)NC(=O)C(CN2CCOCC2)NC1=O` (single isomer, unassigned) [compound 312, Ac-W-T-(Allo-Ile)-C(3)-[3-(1-morpholinyl)-Ala]-N-(2Nal)-Lys(DOTA)-D-C(3)-W-P-CONH2]: the pKd was above 9.00.

With `CC[C@H](C)[C@H](NC(=O)[C@@H](NC(=O)[C@H](Cc1c[nH]c2ccccc12)NC(=O)[C@H](CCSC)NC(C)=O)[C@@H](C)O)C(=O)N[C@H]1CSSC[C@@H](C(=O)N[C@@H](Cc2c[nH]c3ccccc23)C(=O)N2CCC[C@H]2C(N)=O)NC(=O)[C@H](CC(=O)O)NC(=O)[C@H](Cc2cnc[nH]2)NC(=O)[C@H](Cc2c[nH]c3ccccc23)NC(=O)[C@H](CC(N)=O)NC(=O)[C@H](CC(N)=O)NC1=O` [compound 1] (Ac-MWTICNNWHDCWP-NH2; disulfide 5-11), the pKd is 8.00 to 9.00.

Turning to `CC[C@H](C)[C@H](NC(=O)[C@@H](NC(=O)[C@H](Cc1c[nH]c2ccccc12)NC(=O)[C@@H](C)NC(C)=O)[C@@H](C)O)C(=O)N[C@H]1CSSC[C@@H](C(=O)N[C@@H](Cc2c[nH]c3ccccc23)C(=O)N2CCC[C@H]2C(N)=O)NC(=O)[C@H](CC(=O)O)NC(=O)[C@H](Cc2cnc[nH]2)NC(=O)[C@H](Cc2c[nH]c3ccccc23)NC(=O)[C@H](CC(N)=O)NC(=O)[C@H](CC(N)=O)NC1=O` [compound 2, Ac-(D-Ala)-W-T-I-C(3)-N-N-W-H-D-C(3)-W-P-CONH2] (Ac-[dA]WTICNNWHDCWP-NH2; disulfide 5-11), the pKd is 8.00 to 9.00.

As for `CC[C@H](C)[C@H](NC(=O)[C@@H](NC(=O)[C@H](Cc1c[nH]c2ccccc12)NC(=O)[C@H](CCSC)NC(C)=O)[C@@H](C)O)C(=O)N[C@H]1CSSC[C@@H](C(=O)N[C@@H](Cc2c[nH]c3ccccc23)C(=O)N2CCC[C@H]2C(N)=O)NC(=O)[C@H](CC(=O)O)NC(=O)[C@H](Cc2cnc[nH]2)NC(=O)[C@H](Cc2c[nH]c3ccccc23)NC(=O)[C@H](CC(N)=O)NC(=O)[C@@H](C)NC1=O` [compound 7, Ac-M-W-T-I-C(3)-(D-Ala)-N-W-H-D-C(3)-W-P-CONH2] (Ac-MWTIC[dA]NWHDCWP-NH2; disulfide 5-11), the pKd is 7.00 to 8.00.

`CC[C@H](C)[C@H](NC(=O)[C@@H](NC(=O)[C@H](Cc1c[nH]c2ccccc12)NC(=O)[C@H](CCSC)NC(C)=O)[C@@H](C)O)C(=O)N[C@H]1CSSC[C@@H](C(=O)N[C@H](C)C(=O)N2CCC[C@H]2C(N)=O)NC(=O)[C@H](CC(=O)O)NC(=O)[C@H](Cc2cnc[nH]2)NC(=O)[C@H](Cc2c[nH]c3ccccc23)NC(=O)[C@H](CC(N)=O)NC(=O)[C@H](CC(N)=O)NC1=O` [compound 9, Ac-M-W-T-I-C(3)-N-N-W-H-D-C(3)-(D-Ala)-P-CONH2] (Ac-MWTICNNWHDC[dA]P-NH2; disulfide 5-11): the pKd is 6.52 to 7.00.

As for `CC[C@H](C)[C@H](NC(=O)[C@@H](NC(=O)[C@H](Cc1c[nH]c2ccccc12)NC(=O)[C@H](CCSC)NC(C)=O)[C@@H](C)O)C(=O)N[C@H]1CSSC[C@@H](C(=O)N[C@@H](Cc2c[nH]c3ccccc23)C(=O)N[C@H](C)C(N)=O)NC(=O)[C@H](CC(=O)O)NC(=O)[C@H](Cc2cnc[nH]2)NC(=O)[C@H](Cc2c[nH]c3ccccc23)NC(=O)[C@H](CC(N)=O)NC(=O)[C@H](CC(N)=O)NC1=O` [compound 10, Ac-M-W-T-I-C(3)-N-N-W-H-D-C(3)-W-(D-Ala)-CONH2] (Ac-MWTICNNWHDCW[dA]-NH2; disulfide 5-11), the pKd was 6.52 to 7.00.

Consider `CC[C@H](C)[C@H](NC(=O)[C@@H](NC(=O)[C@H](Cc1c[nH]c2ccccc12)NC(=O)[C@H](C)NC(C)=O)[C@@H](C)O)C(=O)N[C@H]1CSSC[C@@H](C(=O)N[C@@H](Cc2c[nH]c3ccccc23)C(=O)N2CCC[C@H]2C(N)=O)NC(=O)[C@H](CC(=O)O)NC(=O)[C@H](Cc2cnc[nH]2)NC(=O)[C@H](Cc2c[nH]c3ccccc23)NC(=O)[C@H](CC(N)=O)NC(=O)[C@H](CC(N)=O)NC1=O` [compound 11, Ac-(L-Ala)-W-T-I-C(3)-N-N-W-H-D-C(3)-W-P-CONH2] (Ac-AWTICNNWHDCWP-NH2; disulfide 5-11), for which the pKd is 8.00 to 9.00.

Turning to `CC[C@H](C)[C@H](NC(=O)[C@H](C)NC(=O)[C@H](Cc1c[nH]c2ccccc12)NC(=O)[C@H](CCSC)NC(C)=O)C(=O)N[C@H]1CSSC[C@@H](C(=O)N[C@@H](Cc2c[nH]c3ccccc23)C(=O)N2CCC[C@H]2C(N)=O)NC(=O)[C@H](CC(=O)O)NC(=O)[C@H](Cc2cnc[nH]2)NC(=O)[C@H](Cc2c[nH]c3ccccc23)NC(=O)[C@H](CC(N)=O)NC(=O)[C@H](CC(N)=O)NC1=O` [compound 13, Ac-M-W-(L-Ala)-I-C(3)-N-N-W-H-D-C(3)-W-P-CONH2] (Ac-MWAICNNWHDCWP-NH2; disulfide 5-11), the pKd is 7.00 to 8.00.
